In PubChem BioAssay AID179 (DTP/NCI, 2004):
Active and inactive are the calls of the source.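 How the source made its calls: active means compounds giving half or more protection of infected cells from virus-caused growth loss, again on retest; inactive means the rest.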

Test system: CEM cells HIV-1 protection, formazan growth assay
Assay: NCI AIDS Antiviral Assay
Details: for IC50: measured here: growth of uninfected CEM cells
How it was run: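 Protection of CEM cells against HIV-1 measured as cell growth via soluble formazan read-out, with five concentrations tested on both infected and uninfected cells; failure to protect may reflect toxicity.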

| SMILES | EC50 [µM] | IC50 [µM] | outcome |
| --- | --- | --- | --- |
| CC1(Br)C2c3ccccc3C(c3ccccc32)C1(C)C(Cl)(Cl)Cl (configuration not stated) | > 16.6 | > 16.6 | – |
| CCOC(=O)c1c(-c2ccc(Br)cc2)ccn1C | > 200 | 74.1 | – |
| OC/C=C/[C@H](OCc1ccccc1)[C@H](/C=C/CO)OCc1ccccc1 | > 200 | 57.5 | – |
| NC(=O)CC(NC(=O)c1ccccc1SC(=O)CCCC[n+]1ccccc1)C(N)=O (configuration not stated) | 32.4 | > 200 | – |
| CC#N.CC#N.COC(=O)[C@H]1CCC(=O)[N-]1.COC(=O)[C@H]1CCC(=O)[N-]1.COC(=O)[C@H]1CCC(=O)[N-]1.COC(=O)[C@H]1CCC(=O)[N-]1.[Rh+2].[Rh+2] | > 200 | > 200 | – |
| CC(C)C(O)S(=O)(=O)O (configuration not stated) | > 200 | > 200 | – |
| Cc1cc(O)cc2c1O[C@@]1(C)CCC3[C@@]4(C)CC[C@H](O)C(C)(C)C4CC[C@@]3(C)[C@H]1C2 (some centres not stated) | – | – | inactive |
| Cc1nc(C(N)=S)sc1C(=O)/C=C/c1c(O)ccc2ccccc12 | > 53.7 | 42.7 | – |
| C/C=C/C#CC#CC(O)C(/C=C/CCCO)OC1OC(CO)C(O)C(O)C1O (configuration not stated) | > 158 | > 158 | – |
| COc1ccc(C2c3cc4c(cc3OC(NNc3ccccc3)C2C)OCO4)cc1 (configuration not stated) | > 200 | 11.7 | – |
| Nc1ncnc2c1ncn2C1OC(CO)CC1O (configuration not stated) | – | – | inactive |
| Cc1cc2c(cc1-c1cc3c(cc1C)C(C(C)C)=C(O)C(=O)/C3=C\Nc1ccccn1)/C(=C/Nc1ccccn1)C(=O)C(O)=C2C(C)C | > 100 | 45.7 | – |
| O=C(O)/C=C/c1ccc[c]([Sb](=[O])([OH])[OH])c1 | 2.82 | > 200 | – |
| O=C1CCC2CCc3cccc4oc1c2c34 (configuration not stated) | – | – | inactive |
| O=c1[nH]c(=O)n([C@H]2CCCO2)cc1F | > 631 | 102 | – |
| CCN(CC)CCCNc1cnnc2cc(Cl)ccc12 | > 363 | 83.2 | – |
| NNC(=S)N/N=C(\CC1OC(=O)c2ccccc21)c1ccccc1O (configuration not stated) | > 363 | 209 | – |
| CC(C)c1cccc(C(C)C)c1N=C(N)C#N | > 195 | 93.3 | – |
| CCC(=O)C1(c2ccccc2)CCN(C)CC1 | > 1070 | – | – |
| c1ccc(N=C2SC(=NNc3ccccc3)SC2=Nc2ccccc2)cc1 | > 200 | > 200 | – |
| Cc1nc2c(=O)[nH]c(=O)n(C)c2[nH]c1=O | > 34.7 | > 34.7 | – |
| Cc1cc([N+](=O)[O-])c(C)c2c1[nH]c1ccc(O)cc12 | > 38.9 | 6.92 | – |
| Cc1ccccc1N=C(N)Nc1ccccc1C | > 200 | > 200 | – |

| SMILES | EC50 [µM] | IC50 [µM] | outcome |
| --- | --- | --- | --- |
| O=C1NC2CC=CCC12 (configuration not stated) | > 2040 | > 2040 | – |
| CN1C2CCC1CC(OC(=O)C1CCC(C(=O)OC3CC4CCC(C3)N4C)(c3ccccc3)c3ccccc31)C2 (configuration not stated) | > 200 | 6.46 | – |
| CC(=O)ONc1nn2cc(-c3ccccc3)nc2s1 | > 200 | > 200 | – |
| CC(C)=O.O=C([O-])C(F)(F)F.O=C([O-])C(F)(F)F.O=C([O-])C(F)(F)F.O=C([O-])C(F)(F)F.[Rh+2].[Rh+2] | > 200 | > 200 | – |
| CCOC(=O)[C@@H](NC(=O)OC(C)(C)C)[C@@H](O)C(=O)OCC | > 200 | > 200 | – |
| COC(=O)[C@@H]1CN(C(C)=O)C(=O)N1C(=O)OCc1ccccc1 | > 200 | > 200 | – |
| OCCNCN(CNCCO)c1nc(N(CNCCO)CNCCO)nc(N(CNCCO)CNCCO)n1 | > 200 | 11.2 | – |
| CC(=O)c1ccc(C(O)C(CO)NC(=O)C(Cl)Cl)cc1 (configuration not stated) | > 200 | > 200 | – |
| CC(=O)NNc1nc(C)c(C(/C=C/c2ccc(NC(C)=O)cc2)=N/NS(=O)(=O)c2ccc(C)cc2)s1 | > 57.5 | > 57.5 | – |
| CCN(CC)c1c(C(=O)/C=C/c2ccc(Cl)cc2)c(-c2ccccc2)nn(C)c1=O | > 23.4 | 4.9 | – |
| CC(C)c1ccc(O)c(=O)cc1 | – | – | inactive |
| C=C1c2nc3ccccc3n2C=C(c2ccc(C)cc2)N1c1ccccc1 | > 200 | 1.35 | – |
| COc1cc(-c2ccccc2)cn2c1nc1ccccc12 | > 200 | 11.5 | – |
| C=CCCCCCCCCC(=O)NCc1nc2ccccc2[nH]1 | > 200 | 29.5 | – |
| O=c1cc(CNC2CCCC2)[nH]c(=O)[nH]1 | – | – | inactive |
| O=C1c2ccc(S(=O)(=O)O)c(O)c2C(=O)c2ccc(S(=O)(=O)O)c(O)c21 | – | – | inactive |
| COc1c2c(c(N)c3ccc(=O)oc13)CCO2 | > 126 | > 126 | – |
| CC1CN=C(N(C(=O)Nc2ccc(F)c(Cl)c2)c2ccccc2)S1 (configuration not stated) | – | – | inactive |
| C=C1C(C(=O)OC)[C@@]2(C)C(C(=O)OC)C(=O)C(C(=O)OC)[C@@]2(CCC)C1C(=O)OC (some centres not stated) | > 141 | 72.4 | – |
| CCC(C)NC(=O)/C(=C\c1ccccc1O)NC(=O)c1ccccc1 (configuration not stated) | > 200 | > 200 | – |
| CCCCS(=O)(=O)c1ccc(O)c(C(=O)Nc2cccc(C(F)(F)F)c2)c1 | > 170 | 1.91 | – |
| CCN(CC)C(=O)C[n+]1c2ccccc2n2cc(N)ccc21 | > 200 | > 200 | – |
| CCOP(=O)(OCC)C(C(=O)OC)C(=O)C(=O)Nc1ccc(Cl)cc1Cl (configuration not stated) | > 61.7 | > 61.7 | – |

| SMILES | EC50 [µM] | IC50 [µM] | outcome |
| --- | --- | --- | --- |
| COc1cc(/C=N\NS(=O)(=O)c2ccc(N)cc2)ccc1O | > 295 | 209 | – |
| COc1ccc(C2OC[C@H]3O[C@@H](OCc4ccccc4)[C@H](O)[C@@H](O)[C@@H]3O2)cc1 (some centres not stated) | > 200 | 35.5 | – |
| Clc1cc2nc3[nH]c4ccccc4c3nc2cc1Cl | > 83.2 | > 83.2 | – |
| Cc1cccc(NC(=O)O/N=C(\Cl)C(C)C)c1 | > 20 | 2.82 | – |
| CCCCCCCCCCCCOC1C(COCCN2CCCC2)OC2OC(C)(C)OC21 (configuration not stated) | > 200 | 3.02 | – |
| O=S(=O)(O)C(C(I)I)S(=O)(=O)O | > 200 | > 200 | – |
| N=C(N)C1CN(CC=O)C(=O)NC1=O (configuration not stated) | > 200 | > 200 | – |
| COc1ccc(/C=C2/SC(=S)NC2=O)c(OC)c1OC | > 200 | 7.76 | – |
| CC(=O)Nc1ccc(S(=O)(=O)Nc2cnc3ccccc3n2)cc1 | > 525 | > 525 | – |
| COc1ccc(Cc2c(=O)[nH]nc3ccccc23)cc1 | > 70.8 | > 70.8 | – |
| Cc1ccc(/C=C/C(=O)C(C)(C)CN2CCCCC2)cc1 | > 27.5 | > 27.5 | – |
| C/C(CCN(C)C)=N/O | – | – | inactive |
| O=c1ccc2c(O)c3ccoc3cc2o1 | > 110 | 93.3 | – |
| CS(=O)(=O)OCCN(CCOS(C)(=O)=O)c1ccc(C=Nc2ccc3oc(=O)ccc3c2)cc1 | > 135 | 1.02 | – |
| C=C[C@@H]1C(CO)=CCC2[C@H]1CCC1C(C)(C)C(=O)CC[C@]21C (some centres not stated) | > 200 | > 200 | – |
| CC(=O)CC(C)=O.CCN(CC)CC[C-]=O.[Pd+2] | > 200 | 5.89 | – |
| N#CC(Cc1ccccc1)C(=O)NN (configuration not stated) | > 200 | > 200 | – |
| O=c1[nH]c2ccc(CC(=S)N3CCN(c4ccccc4)CC3)cc2o1 | > 200 | > 200 | – |
| COc1c(Br)cc(/C=C(\C#N)c2ccccn2)cc1Br | > 100 | > 100 | – |
| c1ccc2c(-c3cccc4ccccc34)cccc2c1 | > 200 | > 200 | – |
| COC(=O)c1cc2c(nc1C)-c1ccccc1OS2(=O)=O | – | – | inactive |
| CCCCCCCCCCCCN(CCCCCCCCCCCC)CC(=O)Nc1ccc(S(=O)(=O)c2ccc(NC(=O)CN(CCCCCCCCCCCC)CCCCCCCCCCCC)cc2)cc1 | > 50.1 | 2.57 | – |
| Cc1ccc2c(c1)CN1c3ccc(C)cc3CN2C1c1ccccc1O | – | – | inactive |

| SMILES | EC50 [µM] | IC50 [µM] | outcome |
| --- | --- | --- | --- |
| NC(=O)c1cc(-c2ccc(-n3ccnc3)cc2)n[nH]c1=O | > 200 | 155 | – |
| O=C1C(Cl)=C(Cl)C(=O)N1C1C2CC3CC(C2)CC1C3 (configuration not stated) | – | – | inactive |
| [Cu+2].[O-]/C(=N\N=C/c1ccccc1F)c1ccncc1.[O-]/C(=N\N=C\c1ccccc1F)c1ccncc1 | > 100 | 16.2 | – |
| C=CCc1cc(OC)c2c(c1)C(O)CC(c1ccc(OC)c(OC)c1)O2 (configuration not stated) | > 263 | > 263 | – |
| C[C@]12CCc3nonc3C1CC[C@@H]1C2CC[C@]2(C)NC(=O)CCC12 (some centres not stated) | > 51.3 | > 51.3 | – |
| CC1c2[nH]c3ccccc3c2CCN1O (configuration not stated) | – | – | inactive |
| CSc1nnc(CCC(=O)Nc2c(C)cccc2C)o1 | > 309 | > 309 | – |
| O=c1nc(-c2ccccc2)c2c3c(cccn13)CCC2 | – | – | inactive |
| OCC1NC(CO)C(O)C1O (configuration not stated) | – | – | inactive |
| COC(=O)Cc1cc(O)c2c(c1O)C(=O)c1ccccc1C2=O | – | – | inactive |
| CCCCCCCCCCCCCC(=O)OCC(CCS(=O)(=O)O[C@H]1CC[C@@]2(C)C(=CC[C@@H]3C2CC[C@]2(C)C(=O)CCC32)C1)OC(=O)CCCCCCCCCCCCC (some centres not stated) | 39.8 | > 100 | – |
| CCN(CC)CCN(C(=Nc1ccccc1)N1CCOCC1)c1ccccc1 | > 200 | 41.7 | – |
| C=CCNC(=O)C(O)C(O)C(=O)NCC=C (configuration not stated) | > 1100 | > 1100 | – |
| Cc1cccc2c1OC(=O)C1CNCOC21 (configuration not stated) | > 200 | 33.1 | – |
| OCC1CC(F)C(n2cnc3c(NC4CC4)ncnc32)O1 (configuration not stated) | > 200 | > 200 | – |
| Nc1nc2c3c(ncn3CC(O)CO2)n1 (configuration not stated) | > 9.55 | > 9.55 | – |
| C/C(=N/NC(=S)N1CCCC1)c1cccc(/C(C)=N\NC(=S)N2CCCC2)n1 | > 2 | 0.123 | – |
| O=C1C2=Cc3ccccc3OC2(O)Oc2ccc(O)cc21 (configuration not stated) | > 200 | 50.1 | – |
| Cn1cc(NC(=O)c2cc(NC(=O)Nc3cc(C(=O)Nc4cc(C(=O)NCCC(=N)N)n(C)c4)n(C)c3)cn2C)cc1C(=O)NCCC(=N)N | 15.1 | 77.6 | – |
| CC#CCC1CCC(OCC)=CC1=O (configuration not stated) | – | – | inactive |
| O=c1cc(-c2cccs2)ss1 | 77.6 | 110 | – |
| CCC(=O)N/S(=N/S(=O)(=O)c1ccccc1)C(Cl)(Cl)Cl (configuration not stated) | > 200 | > 200 | – |
| CCN1C(=O)C(=C/C=C/C=C2/N(C)c3ccccc3C2(C)C)C(=O)N(CC)C1=S | > 200 | 18.6 | – |
